# Results published in patent US4824868A, “Propylamine derivatives useful for the treatment of dementia” (Ciba-Geigy Corporation, priority 1987, dated 1989).
# Where a name gives a salt, the structure may show the parent alone.
# What was measured:
# [1] = tested on: serotonin (5-HT) uptake, rat whole brain synaptosomes; test: Inhibition of tritiated serotonin uptake into synaptosomes from rat whole brain in vitro; assay type: biochemical; settings: for IC50: rat whole brain synaptosomes, 3H-5-HT about 1×10^-7 M, 5 min preincubation, 4 min incubation
# Protocol: (§1) Compounds of the previous examples are tested for their ability to block the uptake of tritiated serotonin into synaptosomal nerve endings from rat whole brain in vitro essentially by the method of Thornburg and Moore as described in Res. Comm. Chem. Pathol. Pharmacol. 5, 81 (1973). The preincubation period of the test compound (added in ethanol solution) with the whole brain synaptosome suspension in Krebs buffer is 5 minutes. The incubation period, following the addition of tritiated serotonin (^3 H-5-HT) to a final concentration of about 1×10^-7 M, is 4 minutes. The concentration of test agent required to inhibit serotonin uptake by 50% of control value i.e. the IC50, is determined graphically and expressed in micromolar concentration.
# [2] = tested on: norepinephrine (NE) uptake, rat whole brain synaptosomes; test: Inhibition of tritiated norepinephrine uptake into synaptosomes from rat whole brain in vitro; assay type: biochemical; settings: 3H-NE
# Protocol: as §1
# The concentration of test agent required to inhibit norepinephrine (NE) uptake by 50% of the control value, i.e., the IC50 is similarly determined using tritiated norepinephrine (^3 H-NE) and is also expressed in micromolar concentration.
# [3] = tested on: reserpine treated rabbits; test: Reversal of reserpine-induced ptosis in the rabbit; assay type: in vivo; settings: reserpine 2 mg/kg i.v. 90 minutes before i.v. infusion of 0.2% drug solution
# Protocol: The serotonin uptake inhibiting or serotonin activating properties of the compounds of the invention are indicative of antidepressant properties as determined by the reversal of reserpine-induced ptosis (i.e. […]) in the rabbit. Rabbits are injected intravenously with 2 mg/kg reserpine 90 minutes before the i.v. infusion of 0.2% drug solution into the ear vein according to the method of J. Mizoule et al. (J. Pharmacol., 8, 3, 269-285, 1977). The complete opening of the eye-lids is taken as a criterion for reversal of the reserpine-induced ptosis. The results are expressed in terms of the mean dose of test compound inducing complete opening of the eye-lids in reserpine treated rabbits.
# [4] = tested on: serotonin (5-HT) uptake, rat midbrain synaptosomes; test: Inhibition of 3H-5-HT uptake in rat midbrain synaptosomes in vitro; assay type: biochemical; settings: rat midbrain-diencephalon synaptosomes; 5-HT 2.5×10^-9 M; 10 minutes
# Protocol: The inhibition of serotonin (5-HT) uptake indicative of potential antidepressant activity is determined in rat midbrain synaptosomes in vitro as follows:
# Synaptosomes from the rat midbrain-diencephalon region are prepared and the uptake of ^3 H-5-HT measured as described by Baumann and Maitre, Naunyn-Schmiedeberg's Arch. Pharmacol. 300, 31 (1977). The concentration of 5-HT in the incubation medium is 2.5×10^-9 M, and the incubation period is 10 minutes. The concentration of a compound of this invention required to inhibit serotonin uptake by 50%, i.e. the IC50, is determined.
# [5] = tested on: norepinephrine (NE) uptake, rat midbrain synaptosomes; test: Inhibition of 3H-NE uptake in rat midbrain synaptosomes in vitro; assay type: biochemical; settings: rat midbrain-diencephalon synaptosomes; NE 1×10^-8 M; 20 minutes
# Protocol: The inhibition of norepinephrine (NE) uptake is determined in rat midbrain synaptosomes in vitro as follows:
# Synaptosomes from the rat midbrain-diencephalon region are prepared and the uptake of ^3 H-NE is measured as described by Baumann and Maitre, Naunyn-Schmiedeberg's Arch. Pharmacol. 300, 31 (1977). The concenrtration of NE in the incubation medium is 1×10^-8 M, and the incubation period is 20 minutes. The concentration required to inhibit norepinephrine uptake by 50%, i.e. the IC50, is determined.
# serotonin (5-HT) uptake = test: Serotonin (5-HT) uptake inhibition in rats pretreated with compounds; assay type: in vivo, rat
# Protocol: Serotonin (5-HT) uptake inhibition is also determined in rats pretreated with compounds of the instant invention.
# serotonin uptake = test: H 75/12 test: inhibition of the serotonin depleting effect of H 75/12 in rat brain; assay type: in vivo; settings: for ED50: oral, 30 minutes before H 75/12 (25 mg/kg s.c.), 4 hours
# Protocol: The inhibition of the serotonin depleting effect of 3-hydroxy-4-methyl-α-ethylphenethylamine (H 75/12) in rat brain serves as an indirect indication of serotonin uptake inhibitory activity. (Carlsson, Corrodi, Fuxe and Hoekfelt, Europ. J. Pharmacol. 5, 357, 1969). A diminution of serotonin release by H 75/12 is considered to be due to a serotonin uptake inhibitory effect of the test compound. The compound to be tested is administered orally 30 minutes before H 75/12 (25 mg/kg s.c.) and the animals are decapitated 4 hours thereafter. The brains are immdiately taken out and serotonin is determined as described above. The ED50 represents the dose of the test compound inhibiting the serotonin-depleting effect of H75/12 by 50%.
Compound,IC50 [1] [nM],IC50 [2] [nM],further results
COc1cccc(OCC(Cc2ccccc2)CN(C)C)c1 (centres unmarked) [3/1],430,4300,–
"CSc1ccc(OCC(Cc2ccccc2)CN(C)C)cc1.O=C(O)C(=O)O (centres unmarked) [3/2, N,N-dimethyl-2-benzyl-3-(4-methylmercaptophenoxy)-propylamine oxalate]",270,10800,mean dose inducing complete opening of the eye-lids [3]: about 7.7 mg/kg i.v.; IC50 [4]: ~30 nM; IC50 [5]: ~500 nM; inhibition of 3H-5HT uptake (serotonin (5-HT) uptake; 30 mg/kg p.o.): about 80%; ED50 (serotonin uptake): ~2.3 mg/kg
CN(C)CC(COc1ccccc1Cl)Cc1ccccc1 (centres unmarked) [3/3],1300,5300,–
CN(C)CC(COc1ccc(Cl)cc1)Cc1ccccc1 (centres unmarked) [3/4],1490,12000,–
COc1ccc(OCC(Cc2ccccc2)CN2CCCCC2)cc1 (centres unmarked) [3/5],6100,39500,–
CN(C)CC(COc1cccc(Cl)c1)Cc1ccccc1 (centres unmarked) [3/6],2700,16100,–
Cc1ccc(OCC(Cc2ccccc2)CN(C)C)cc1 (centres unmarked) [3/7],1220,12500,–
Cc1cccc(OCC(Cc2ccccc2)CN(C)C)c1 (centres unmarked) [3/8],1250,3250,–
COc1ccc(SCC(Cc2ccccc2)CN(C)C)cc1 (centres unmarked) [3/9],1530,8100,–
CN(C)CC(COc1cccc(C(F)(F)F)c1)Cc1ccccc1 (centres unmarked) [3/10],2250,6900,–
COc1cccc(SCC(Cc2ccccc2)CN(C)C)c1 (centres unmarked) [3/11],1950,7600,–
COc1cc(OC)cc(OCC(Cc2ccccc2)CN(C)C)c1 (centres unmarked) [3/12],1520,4300,–
C=CCOc1cccc(OCC(Cc2ccccc2)CN(C)C)c1 (centres unmarked) [3/13],590,1440,–
CSc1ccc(OCC(Cc2ccc(Cl)cc2)CN(C)C)cc1 (centres unmarked) [3/14],670,7100,–
CN(C)CC(COc1ccc(C(F)(F)F)cc1)Cc1cccc(Cl)c1 (centres unmarked) [3/15],6000,32000,–
COc1ccc(OCC(Cc2ccccc2)CN(C)C)cc1 (centres unmarked) [3/16],560,570,–
CNCC(COc1ccc(OC)cc1)Cc1ccccc1 (centres unmarked) [6/1],440,1250,–
"CNCC(COc1ccc(SC)cc1)Cc1ccccc1 (centres unmarked) [6/2, N-methyl-2-benzyl-3-(4-methylthiophenoxy)propylamine]",140,2500,–
CNCC(COc1ccc(SC)cc1)Cc1cccc(Cl)c1 (centres unmarked) [6/3],2700,11000,–
"CN(C)CC(COc1ccc(C(F)(F)F)cc1)Cc1ccccc1.O=C(O)C(=O)O (centres unmarked) [Example 1, N,N-dimethyl-2-benzyl-3-(4-trifluoromethylphenoxy)propylamine oxalate]",490,15200,mean dose inducing complete opening of the eye-lids [3]: ~12.6 mg/kg i.v.; IC50 [4]: ~15 nM; IC50 [5]: ~3000 nM; inhibition of 3H-5HT uptake (serotonin (5-HT) uptake; 30 mg/kg p.o.): ~60%; ED50 (serotonin uptake): ~4.5 mg/kg
"CSc1ccc(OCC(Cc2cccc(Cl)c2)CN(C)C)cc1.O=C(O)C(=O)O (centres unmarked) [Example 2, N,N-dimethyl-2-(3-chlorobenzyl)-3-(4-methylmercaptophenoxy)propylamine oxalate]",30,5000,ED50 (serotonin uptake): ~1.4 mg/kg
"CNCC(COc1ccc(C(F)(F)F)cc1)Cc1ccccc1 (centres unmarked) [Example 4, N-methyl-2-benzyl-3-(4-trifluoromethylphenoxy)propylamine hydrochloride]",390,12600,–
"CNCC(COc1cccc(OC)c1)Cc1ccccc1 (centres unmarked) [Example 5, N-methyl-2-benzyl-3-(3-methoxyphenoxy)propylamine oxalate]",940,1390,–
"CNCC(COc1ccccc1OC)Cc1ccccc1 (centres unmarked) [Example 8, N-methyl-2-benzyl-3-(2-methoxyphenoxy)propylamine oxalate]",5400,8900,–
"CCN(CC)CC(COc1ccccc1)Cc1ccccc1.Cl (centres unmarked) [Example 16, N,N-diethyl-2-benzyl-3-phenoxypropylamine hydrochloride, reference compound]",7300,3300,"selectivity (serotonin vs norepinephrine uptake) in in vitro tests ([1]; in vitro, whole brain and midbrain synaptosomes, in words): no selectivity is seen in in vitro tests; IC50 [4]: 2200 nM; IC50 [5]: 2000 nM; inhibition of the serotonin-depleting effect of H 75/12 (serotonin uptake; 30 mg/Kg p.o.): 17%; in vivo serotonin uptake inhibitory activity (serotonin uptake; 30 mg/Kg p.o., in words): no significant in vivo serotonin uptake inhibitory activity"
CNCC(COc1ccc(C(F)(F)F)cc1)Cc1ccccc1.O=C(O)C(=O)O (centres unmarked) [N-methyl-2-benzyl-3-(4-trifluoromethylphenoxy)-propylamine oxalate],–,–,mean dose inducing complete opening of the eye-lids [3]: ~12.9 mg/kg i.v.; IC50 [4]: ~10 nM; IC50 [5]: ~2000 nM; inhibition of 3H-5HT uptake (serotonin (5-HT) uptake; 10 mg/kg p.o.): ~50%; ED50 (serotonin uptake): ~1.8 mg/kg
